From patent publication US20130310347A1, “MULTI-MODALITY MOLECULAR IMAGING HIGH-THROUGHPUT ASSAY FOR IDENTIFYING HEAT SHOCK PROTEIN 90 (HSP90) INHIBITORS” (The Board of Trustees of the Leland Stanford Junior …, priority 2012, published 2013)

How the values were obtained:
U87-MG cells = experiment: Alamar Blue cell proliferation; format: cell-based, human; conditions: 24 h
Protocol: FIG. 6A is a series of graphs illustrating the effect of CP9 on cell proliferation determined by an Alamar Blue assay. The indicated cancer cell lines were treated with different concentrations of CP9 for 24 h prior to incubation with Alamar blue for 4 h. The Hsp90 inhibitors PU-H71 and 17AAG were used as positive controls. Emissions at 570 nm in CP9-treated cells were normalized to that of carrier control-treated cells. Results are expressed as normalized cell proliferation±S.E.M.
CP9 had no effect on proliferation of normal MEFs. Since CP9 led to decrease in phosphorylated Akt (FIGS. 5A and 10A-10C), it was expected to inhibit glucose metabolism through relief of inhibition of glycogen synthase kinase […] (Nair & Olanow (2008) J. Biol. Chem. M707238200; Dandekar et al., (2007) J. Nucl. Med. 48: 602-607).

[1] = test system: Hsp90 client proteins (phosphorylated/total Akt, Raf-1); experiment: Ex vivo western blotting of excised tumors; format: in vivo, mice; conditions: western blotting after last imaging time point; p>0.05
Protocol: To determine if the inhibition of Hsp90(α/β)/p23 interactions also leads to degradation of Hsp90 client proteins in mice, tumors were excised from sacrificed mice after the last PET/CT imaging time point. The expression of phosphorylated/total Akt and Raf-1 in tumor lysates was determined by western blotting. α-tubulin was used as a loading control.
Mice were euthanized after the last imaging time points and tumors were excised and homogenized in tissue extraction buffer in the presence of HALT® protease and phosphatase inhibitors (all from Pierce, Ill.). Protein concentrations were determined by Biorad Protein Dc assay. The expression of phosphorylated/total Akt, Raf-1 and […] were determined by western blotting as described in Chan et al., (2008) Cancer Res. 68: 216-226. Western blot images were quantitated using NIH Image J, and expressed as the ratio of target protein/α-tubulin for each treatment group.

Hsp90 client proteins = experiment: Western blotting of Hsp90 client proteins in normal MEF cells; format: cell-based; conditions: normal mouse embryonic fibroblasts
Source text: CP9 had no effect on the expression of the Hsp90 client proteins in normal mouse embryonic fibroblasts (MEF) cells (FIG. 10C).

purified Hsp90α = purified Hsp90α (Homo sapiens, UniProt P07900); experiment: In vitro competitive binding with 3H-17AAG; conditions: CP9 200 μM pre-incubation; p<0.05
Protocol: (§1) FIG. 5C is a graph illustrating the competitive in vitro binding of CP9 with ^3H-17AAG to Hsp90(α/β). Purified Hsp90(α/β) was pre-incubated with CP9 (200 μM) or cold 17-AAG (50 μM) prior to incubation with ^3H-17AAG. The reaction complexes were then eluted through a desalting column to remove any unbound ^3H-17AAG prior to scintillation counting for the amount of ^3H-17AAG bound to Hsp90(α/β). Columns incubated with ^3H-17AAG alone served as negative controls. Results are expressed as means of triplicates±S.E.M. *, p<5×10^−6 vs. carrier control-treated cells.
(§2) To confirm the direct binding of CP9 to Hsp90(α/β), an in vitro competitive binding assay using purified Hsp90α and Hsp90β was performed using radiolabeled Hsp90 inhibitor ^3H-17AAG. Hsp90 proteins were pre-bound with CP9 or cold 17-AAG as a control prior to incubation with ^3H-17AAG. Unbound ^3H-17AAG was removed and the amount of ^3H-17AAG bound to the Hsp90 proteins was determined. […] To confirm cellular Hsp90 as the target of CP9, uptake studies in intact HT29 cells were performed by monitoring the competitive binding of ^3H-17AAG. […]
(§3) To verify the binding of CP9 to Hsp90α and Hsp90β in vitro, a displacement assay using ^3H-17AAG was performed. […] The amount of ^3H-17AAG that remained bound to Hsp90α or Hsp9013 was determined by scintillation counting.

purified Hsp90β = purified Hsp90β (Homo sapiens, UniProt P08238); experiment: In vitro competitive binding with 3H-17AAG; conditions: CP9 200 μM pre-incubation
Protocol: as §1, §2, §3

normal MEF cells = experiment: 3H-FDG cell uptake (glucose metabolism); format: cell-based, mouse; conditions: 24 h post treatment
Protocol: FIG. 6B is a graph illustrating the effect of CP9 on glucose metabolism determined in 1975 lung cancer, 2008 ovarian cancer and HT29 colon cancer cells by ^3H-FDG cell uptake studies 24 h post treatment. Normal MEFs were used as a control. Results were expressed as mean counts/μg protein/initial dose±S.E.M. *, p<0.05 vs. carrier control treated cells.
To determine the specificity of CP9 in inhibition of glucose metabolism, normal MEF cells were used as a control.
To determine the downstream effects of lead compounds on glucose metabolism, 1.5×10^5 293T, 1975 and 2008 and MEFs cells plated in 24-well plate for 24 h, prior to treatment with different concentrations of CP9 for 24 or 48 h and subsequent incubation with 1 μCi of ^3H-FDG in 500 μl of medium for 1 h at 37° C. Cells treated with 2.5 μM of PU-H71 served as a positive control. The total counts in each sample were normalized to that of the dose added to each well and to the amount of protein, and expressed as mean counts/dose/μg protein±S.E.M. Likewise, the effect of CP9 on cell proliferation was determined using 1 μCi of ^3H-FLT per well after 2 h of incubation at 37° C.

[2] = 18F-FDG uptake in the brains of mice; format: in vivo; conditions: CP9 treated mice; P>0.05 vs carrier
Protocol: The ^18F-FDG uptake in the brains of mice using CT images to delineate boundaries was also analyzed. Relative to day 0, the maximum % ID/g of ^18F-FDG uptake was 114±11% in mice treated with carrier and 99±4% in mice treated with CP9. There was no statistical difference between the two groups (P>0.05).

purified Hsp90β, sequence (P08238 whole entry): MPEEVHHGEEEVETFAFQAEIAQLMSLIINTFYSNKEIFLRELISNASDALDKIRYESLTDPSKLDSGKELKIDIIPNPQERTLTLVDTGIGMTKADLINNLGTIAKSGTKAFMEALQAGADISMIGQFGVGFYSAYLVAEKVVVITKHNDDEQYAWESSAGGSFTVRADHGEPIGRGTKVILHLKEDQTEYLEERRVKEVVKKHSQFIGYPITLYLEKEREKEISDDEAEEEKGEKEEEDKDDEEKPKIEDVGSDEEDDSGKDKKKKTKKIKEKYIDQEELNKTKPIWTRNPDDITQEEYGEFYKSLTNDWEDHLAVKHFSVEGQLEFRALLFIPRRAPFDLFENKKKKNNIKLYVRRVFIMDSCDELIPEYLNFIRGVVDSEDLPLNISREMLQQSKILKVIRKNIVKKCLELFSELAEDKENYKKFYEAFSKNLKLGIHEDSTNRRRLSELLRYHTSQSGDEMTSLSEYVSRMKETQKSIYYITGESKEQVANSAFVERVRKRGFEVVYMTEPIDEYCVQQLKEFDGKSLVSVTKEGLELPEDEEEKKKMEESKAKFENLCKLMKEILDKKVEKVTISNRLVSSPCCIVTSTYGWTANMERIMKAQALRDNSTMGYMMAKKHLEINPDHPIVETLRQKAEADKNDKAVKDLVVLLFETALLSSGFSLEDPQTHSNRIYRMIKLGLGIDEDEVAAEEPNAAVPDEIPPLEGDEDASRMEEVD

reduction of binding of 3H-17AAG to purified Hsp90α (purified Hsp90α): about 50%
binding of 3H-17AAG to Hsp90β (purified Hsp90β): did not significantly affect
maximum % ID/g of 18F-FDG uptake in brain relative to day 0 [2]: 99±4%
Structure (SMILES): Cc1cc(NC(=O)CSc2nc(-c3cccs3)cc(C(F)(F)F)n2)no1 [CP9, N-(5-methylisoxazol-3-yl)-2-(4-(thiophen-2-yl)-6-(trifluoromethyl)pyrimidin-2-ylthio)acetamide]
inhibition of cell proliferation vs PU-H71 and 17-AAG (U87-MG cells): more effective than PU-H71 and 17-AAG
Hsp90 client proteins in excised tumors relative to carrier control [1]: did not lead to significant degradation
expression of Hsp90 client proteins (Hsp90 client proteins): no effect
3H-FDG uptake in MEFs (normal MEF cells): without significantly affecting
